# In patent US12427157B2, “Methods for treatment of diseases involving acidic or hypoxic diseased tissues” (Cybrexa 1, Inc., priority 2018, dated 2025):
# Residues, ends and D or L forms follow the SMILES beside them. *: point of attachment. X12 = C[C@H](COC(=O)N(C)Cc1ccc(-c2[nH]c3cc(F)cc4c3c2CCNC4=O)cc1)S*; X19 = CN(Cc1ccc(-c2[nH]c3cc(F)cc4c3c2CCNC4=O)cc1)C(=O)OCCS*; X2 = NC(=O)c1cccc2[nH]c(-c3ccc(COC(=O)OCCS*)cc3)nc12
# Molecular target: PARP (Homo sapiens, UniProt P09874)
# Assay: Enzymatic Assay 2: HT Universal Chemiluminescent PARP Assay of cleaved compounds;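 note: PARP reaction with activated DNA run 1 h at room temperature, product detected via streptavidin-HRP and luminescence endpoint reading on a plate reader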
# Conditions: read-out: IC50 Enzymatic Assay 2; Examples cleaved per Example A (crude cleavage solution); R^8H starting materials as such
# Experimental: An equal volume of 1×PARP cocktail containing activated DNA was added to each well and the reaction was incubated for one hour at room temperature. The wells were washed twice with 1×PBS+0.1% Triton X-100 and twice with PBS. 50 ul/well of diluted streptavidin-HRP was added and the wells were incubated for one hour at room temperature. The wells were washed twice with 1×PBS+0.1% Triton X-100 and washed twice with PBS. The liquid was 5 removed, 100 ul/well 1:1 PeroxyGlow A/PeroxyGlow B was added and the chemiluminescent readings were measured on a BioTek Cytation 5 plate reader using the luminescence fiber endpoint.
# Sequence of PARP (P09874 whole entry): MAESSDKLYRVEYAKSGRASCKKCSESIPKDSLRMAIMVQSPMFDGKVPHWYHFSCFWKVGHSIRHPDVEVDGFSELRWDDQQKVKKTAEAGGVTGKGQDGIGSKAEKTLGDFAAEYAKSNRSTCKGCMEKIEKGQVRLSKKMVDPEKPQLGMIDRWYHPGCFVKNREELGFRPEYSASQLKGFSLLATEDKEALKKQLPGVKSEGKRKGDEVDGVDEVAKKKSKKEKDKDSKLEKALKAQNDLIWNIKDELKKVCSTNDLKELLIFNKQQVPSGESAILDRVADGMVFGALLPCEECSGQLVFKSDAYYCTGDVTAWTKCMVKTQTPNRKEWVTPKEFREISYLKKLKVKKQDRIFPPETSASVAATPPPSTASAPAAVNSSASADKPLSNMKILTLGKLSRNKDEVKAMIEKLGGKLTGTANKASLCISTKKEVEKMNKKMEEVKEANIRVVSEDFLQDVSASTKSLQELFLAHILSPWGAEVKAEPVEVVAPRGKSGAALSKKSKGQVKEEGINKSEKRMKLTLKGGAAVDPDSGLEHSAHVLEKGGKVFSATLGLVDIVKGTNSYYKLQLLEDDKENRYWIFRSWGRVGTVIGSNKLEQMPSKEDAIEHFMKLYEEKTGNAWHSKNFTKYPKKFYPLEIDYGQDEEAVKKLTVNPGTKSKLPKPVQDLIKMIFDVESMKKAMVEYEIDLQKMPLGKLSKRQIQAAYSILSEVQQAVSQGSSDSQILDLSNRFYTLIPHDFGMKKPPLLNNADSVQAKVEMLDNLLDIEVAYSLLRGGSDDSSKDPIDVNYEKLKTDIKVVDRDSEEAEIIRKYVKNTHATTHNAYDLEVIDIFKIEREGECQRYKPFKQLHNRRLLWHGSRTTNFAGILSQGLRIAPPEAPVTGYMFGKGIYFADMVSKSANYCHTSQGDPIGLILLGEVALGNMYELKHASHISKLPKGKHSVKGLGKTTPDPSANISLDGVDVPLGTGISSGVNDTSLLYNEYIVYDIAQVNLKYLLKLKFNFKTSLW
row,Structure (SMILES),IC50 [nM]
1,CC(C)C[C@H](NC(=O)[C@H](Cc1ccc(O)cc1)NC(=O)[C@H](C)NC(=O)[C@H](CCCNC(=N)N)NC(=O)[C@H](Cc1c[nH]c2ccccc12)NC(=O)[C@@H]1CCCN1C(=O)[C@H](CC(N)=O)NC(=O)[C@H](CCC(N)=O)NC(=O)[C@H](CC(=O)O)NC(=O)[C@H](CC(=O)O)NC(=O)[C@H](C)N)C(=O)N[C@@H](CC(=O)O)C(=O)N[C@@H](CC(C)C)C(=O)N[C@@H](CC(C)C)C(=O)N[C@@H](Cc1ccccc1)C(=O)N1CCC[C@H]1C(=O)N[C@H](C(=O)N[C@@H](CC(=O)O)C(=O)N[C@H](C(=O)N[C@@H](CC(C)C)C(=O)N[C@@H](CC(C)C)C(=O)N[C@@H](CC(C)C)C(=O)N[C@@H](CC(=O)O)C(=O)N[C@@H](CC(C)C)C(=O)N[C@@H](CC(C)C)C(=O)N[C@@H](Cc1c[nH]c2ccccc12)C(=O)N[C@@H](CSSCCOC(=O)OCc1ccc(-c2nc3c(C(N)=O)cccc3[nH]2)cc1)C(=O)NCC(=O)O)[C@@H](C)O)[C@@H](C)O [Example 1],12.1
2,CC[C@H](C)[C@H](NC(=O)[C@@H]1CCCN1C(=O)[C@H](CC(N)=O)NC(=O)[C@H](CCC(N)=O)NC(=O)[C@H](CCC(=O)O)NC(=O)[C@H](C)N)C(=O)N[C@@H](Cc1ccc(O)cc1)C(=O)N[C@@H](Cc1c[nH]c2ccccc12)C(=O)N[C@@H](C)C(=O)N[C@@H](CCCNC(=N)N)C(=O)N[C@@H](Cc1ccc(O)cc1)C(=O)N[C@@H](C)C(=O)N[C@@H](CC(=O)O)C(=O)N[C@@H](Cc1c[nH]c2ccccc12)C(=O)N[C@@H](CC(C)C)C(=O)N[C@@H](Cc1ccccc1)C(=O)N[C@H](C(=O)N[C@H](C(=O)N1CCC[C@H]1C(=O)N[C@@H](CC(C)C)C(=O)N[C@@H](CC(C)C)C(=O)N[C@@H](CC(C)C)C(=O)N[C@@H](CC(C)C)C(=O)N[C@@H](CC(=O)O)C(=O)N[C@@H](CC(C)C)C(=O)N[C@@H](C)C(=O)N[C@@H](CC(C)C)C(=O)N[C@@H](CC(C)C)C(=O)N[C@H](C(=O)N[C@@H](CC(=O)O)C(=O)N[C@@H](C)C(=O)N[C@@H](CC(=O)O)C(=O)N[C@@H](CCC(=O)O)C(=O)N[C@@H](CSSCCOC(=O)OCc1ccc(-c2nc3c(C(N)=O)cccc3[nH]2)cc1)C(=O)NCC(=O)O)C(C)C)[C@@H](C)O)[C@@H](C)O [Example 2] (H-AEQNPIYWARYADWLFTTPLLLLDLALLVDADEC(X2)G-OH; N-terminus and C-terminus assumed),9.52
3,CC(C)C[C@H](NC(=O)[C@H](Cc1ccc(O)cc1)NC(=O)[C@H](C)NC(=O)[C@H](CCCNC(=N)N)NC(=O)[C@H](Cc1c[nH]c2ccccc12)NC(=O)[C@@H]1CCCN1C(=O)[C@H](CC(N)=O)NC(=O)[C@H](CCC(N)=O)NC(=O)[C@H](CC(=O)O)NC(=O)[C@H](CC(=O)O)NC(=O)[C@H](C)N)C(=O)N[C@@H](CC(=O)O)C(=O)N[C@@H](CC(C)C)C(=O)N[C@@H](CC(C)C)C(=O)N[C@@H](Cc1ccccc1)C(=O)N1CCC[C@H]1C(=O)N[C@H](C(=O)N[C@@H](CC(=O)O)C(=O)N[C@H](C(=O)N[C@@H](CC(C)C)C(=O)N[C@@H](CC(C)C)C(=O)N[C@@H](CC(C)C)C(=O)N[C@@H](CC(=O)O)C(=O)N[C@@H](CC(C)C)C(=O)N[C@@H](CC(C)C)C(=O)N[C@@H](Cc1c[nH]c2ccccc12)C(=O)N[C@@H](CC(=O)O)C(=O)N[C@@H](C)C(=O)N[C@@H](CC(=O)O)C(=O)N[C@@H](CCC(=O)O)C(=O)N[C@@H](CSSCCOC(=O)N1CCC[C@@H](c2ccc(-n3cc4cccc(C(N)=O)c4n3)cc2)C1)C(=O)NCC(=O)O)[C@@H](C)O)[C@@H](C)O [Example 10],64.9
4,CC(C)C[C@H](NC(=O)[C@H](Cc1ccc(O)cc1)NC(=O)[C@H](C)NC(=O)[C@H](CCCNC(=N)N)NC(=O)[C@H](Cc1c[nH]c2ccccc12)NC(=O)[C@@H]1CCCN1C(=O)[C@H](CC(N)=O)NC(=O)[C@H](CCC(N)=O)NC(=O)[C@H](CC(=O)O)NC(=O)[C@H](CC(=O)O)NC(=O)[C@H](C)N)C(=O)N[C@@H](CC(=O)O)C(=O)N[C@@H](CC(C)C)C(=O)N[C@@H](CC(C)C)C(=O)N[C@@H](Cc1ccccc1)C(=O)N1CCC[C@H]1C(=O)N[C@H](C(=O)N[C@@H](CC(=O)O)C(=O)N[C@H](C(=O)N[C@@H](CC(C)C)C(=O)N[C@@H](CC(C)C)C(=O)N[C@@H](CC(C)C)C(=O)N[C@@H](CC(=O)O)C(=O)N[C@@H](CC(C)C)C(=O)N[C@@H](CC(C)C)C(=O)N[C@@H](Cc1c[nH]c2ccccc12)C(=O)N[C@@H](CC(=O)O)C(=O)N[C@@H](C)C(=O)N[C@@H](CC(=O)O)C(=O)N[C@@H](CCC(=O)O)C(=O)N[C@@H](CSSCCOC(=O)N1CCC[C@]1(C)c1nc2c(C(N)=O)cccc2[nH]1)C(=O)NCC(=O)O)[C@@H](C)O)[C@@H](C)O [Example 11],1.08
5,CC[C@H](C)[C@H](NC(=O)[C@@H]1CCCN1C(=O)[C@H](CC(N)=O)NC(=O)[C@H](CCC(N)=O)NC(=O)[C@H](CCC(=O)O)NC(=O)[C@H](C)N)C(=O)N[C@@H](Cc1ccc(O)cc1)C(=O)N[C@@H](Cc1c[nH]c2ccccc12)C(=O)N[C@@H](C)C(=O)N[C@@H](CCCNC(=N)N)C(=O)N[C@@H](Cc1ccc(O)cc1)C(=O)N[C@@H](C)C(=O)N[C@@H](CC(=O)O)C(=O)N[C@@H](Cc1c[nH]c2ccccc12)C(=O)N[C@@H](CC(C)C)C(=O)N[C@@H](Cc1ccccc1)C(=O)N[C@H](C(=O)N[C@H](C(=O)N1CCC[C@H]1C(=O)N[C@@H](CC(C)C)C(=O)N[C@@H](CC(C)C)C(=O)N[C@@H](CC(C)C)C(=O)N[C@@H](CC(C)C)C(=O)N[C@@H](CC(=O)O)C(=O)N[C@@H](CC(C)C)C(=O)N[C@@H](C)C(=O)N[C@@H](CC(C)C)C(=O)N[C@@H](CC(C)C)C(=O)N[C@H](C(=O)N[C@@H](CC(=O)O)C(=O)N[C@@H](C)C(=O)N[C@@H](CC(=O)O)C(=O)N[C@@H](CCC(=O)O)C(=O)N[C@@H](CSSCCOC(=O)N(C)Cc1ccc(-c2[nH]c3cc(F)cc4c3c2CCNC4=O)cc1)C(=O)NCC(=O)O)C(C)C)[C@@H](C)O)[C@@H](C)O [Example 15] (H-AEQNPIYWARYADWLFTTPLLLLDLALLVDADEC(X19)G-OH; N-terminus and C-terminus assumed),6.47
6,CC(C)C[C@H](NC(=O)[C@H](Cc1ccc(O)cc1)NC(=O)[C@H](C)NC(=O)[C@H](CCCNC(=N)N)NC(=O)[C@H](Cc1c[nH]c2ccccc12)NC(=O)[C@@H]1CCCN1C(=O)[C@H](CC(N)=O)NC(=O)[C@H](CCC(N)=O)NC(=O)[C@H](CC(=O)O)NC(=O)[C@H](CC(=O)O)NC(=O)[C@H](C)N)C(=O)N[C@@H](CC(=O)O)C(=O)N[C@@H](CC(C)C)C(=O)N[C@@H](CC(C)C)C(=O)N[C@@H](Cc1ccccc1)C(=O)N1CCC[C@H]1C(=O)N[C@H](C(=O)N[C@@H](CC(=O)O)C(=O)N[C@H](C(=O)N[C@@H](CC(C)C)C(=O)N[C@@H](CC(C)C)C(=O)N[C@@H](CC(C)C)C(=O)N[C@@H](CC(=O)O)C(=O)N[C@@H](CC(C)C)C(=O)N[C@@H](CC(C)C)C(=O)N[C@@H](Cc1c[nH]c2ccccc12)C(=O)N[C@@H](CSS[C@H](C)COC(=O)N(C)Cc1ccc(-c2[nH]c3cc(F)cc4c3c2CCNC4=O)cc1)C(=O)NCC(=O)O)[C@@H](C)O)[C@@H](C)O [Example 18],1.1
7,CC[C@H](C)[C@H](NC(=O)[C@@H]1CCCN1C(=O)[C@H](CC(N)=O)NC(=O)[C@H](CCC(N)=O)NC(=O)[C@H](CCC(=O)O)NC(=O)[C@H](C)N)C(=O)N[C@@H](Cc1ccc(O)cc1)C(=O)N[C@@H](Cc1c[nH]c2ccccc12)C(=O)N[C@@H](C)C(=O)N[C@@H](CCCNC(=N)N)C(=O)N[C@@H](Cc1ccc(O)cc1)C(=O)N[C@@H](C)C(=O)N[C@@H](CC(=O)O)C(=O)N[C@@H](Cc1c[nH]c2ccccc12)C(=O)N[C@@H](CC(C)C)C(=O)N[C@@H](Cc1ccccc1)C(=O)N[C@H](C(=O)N[C@H](C(=O)N1CCC[C@H]1C(=O)N[C@@H](CC(C)C)C(=O)N[C@@H](CC(C)C)C(=O)N[C@@H](CC(C)C)C(=O)N[C@@H](CC(C)C)C(=O)N[C@@H](CC(=O)O)C(=O)N[C@@H](CC(C)C)C(=O)N[C@@H](C)C(=O)N[C@@H](CC(C)C)C(=O)N[C@@H](CC(C)C)C(=O)N[C@H](C(=O)N[C@@H](CC(=O)O)C(=O)N[C@@H](C)C(=O)N[C@@H](CC(=O)O)C(=O)N[C@@H](CCC(=O)O)C(=O)N[C@@H](CSS[C@H](C)COC(=O)N(C)Cc1ccc(-c2[nH]c3cc(F)cc4c3c2CCNC4=O)cc1)C(=O)NCC(=O)O)C(C)C)[C@@H](C)O)[C@@H](C)O [Example 19] (H-AEQNPIYWARYADWLFTTPLLLLDLALLVDADEC(X12)G-OH; N-terminus and C-terminus assumed),2.2
8,CC(C)C[C@H](NC(=O)[C@H](Cc1ccc(O)cc1)NC(=O)[C@H](C)NC(=O)[C@H](CCCNC(=N)N)NC(=O)[C@H](Cc1c[nH]c2ccccc12)NC(=O)[C@@H]1CCCN1C(=O)[C@H](CC(N)=O)NC(=O)[C@H](CCC(N)=O)NC(=O)[C@H](CC(=O)O)NC(=O)[C@H](CC(=O)O)NC(=O)[C@H](C)N)C(=O)N[C@@H](CC(=O)O)C(=O)N[C@@H](CC(C)C)C(=O)N[C@@H](CC(C)C)C(=O)N[C@@H](Cc1ccccc1)C(=O)N1CCC[C@H]1C(=O)N[C@H](C(=O)N[C@@H](CC(=O)O)C(=O)N[C@H](C(=O)N[C@@H](CC(C)C)C(=O)N[C@@H](CC(C)C)C(=O)N[C@@H](CC(C)C)C(=O)N[C@@H](CC(=O)O)C(=O)N[C@@H](CC(C)C)C(=O)N[C@@H](CC(C)C)C(=O)N[C@@H](Cc1c[nH]c2ccccc12)C(=O)N[C@@H](CC(=O)O)C(=O)N[C@@H](C)C(=O)N[C@@H](CC(=O)O)C(=O)N[C@@H](CCC(=O)O)C(=O)N[C@@H](CSS[C@H](C)COC(=O)N(C)Cc1ccc(-c2[nH]c3cc(F)cc4c3c2CCNC4=O)cc1)C(=O)NCC(=O)O)[C@@H](C)O)[C@@H](C)O [Example 20],1.7
9,CC(C)C[C@H](NC(=O)[C@H](Cc1ccc(O)cc1)NC(=O)[C@H](C)NC(=O)[C@H](CCCNC(=N)N)NC(=O)[C@H](Cc1c[nH]c2ccccc12)NC(=O)[C@@H]1CCCN1C(=O)[C@H](CC(N)=O)NC(=O)[C@H](CCC(N)=O)NC(=O)[C@H](CC(=O)O)NC(=O)[C@H](CC(=O)O)NC(=O)[C@H](C)N)C(=O)N[C@@H](CC(=O)O)C(=O)N[C@@H](CC(C)C)C(=O)N[C@@H](CC(C)C)C(=O)N[C@@H](Cc1ccccc1)C(=O)N1CCC[C@H]1C(=O)N[C@H](C(=O)N[C@@H](CC(=O)O)C(=O)N[C@H](C(=O)N[C@@H](CC(C)C)C(=O)N[C@@H](CC(C)C)C(=O)N[C@@H](CC(C)C)C(=O)N[C@@H](CC(=O)O)C(=O)N[C@@H](CC(C)C)C(=O)N[C@@H](CC(C)C)C(=O)N[C@@H](Cc1c[nH]c2ccccc12)C(=O)N[C@@H](CSS[C@@H](C)COC(=O)N(C)Cc1ccc(-c2[nH]c3cc(F)cc4c3c2CCNC4=O)cc1)C(=O)NCC(=O)O)[C@@H](C)O)[C@@H](C)O [Example 21],2.2
